Consider 12 compounds from patent publication US9181251B2, “Anti-malarial compounds from marine natural products” (University of Central Florida Research Foundation, Inc., priority 2012, dated 2015).

For data set [1], the system named is P. falciparum chloroquine-resistant Dd2 strain. Kind of data set: Antiplasmodial activity, SYBR Green I fluorescence-based assay. It counts as cell-based. Particulars: for Selectivity: cytotoxicity IC50 (NIH 3T3) over Dd2 IC50. The method, then:
Fractions were derived from 20 different marine species. […] All fractions were then analyzed by LC-MS to identify active extracts with the greatest potential for novelty.
(§1) Antiplasmodial activity was tested in P falciparum chloroquine resistant Dd2, and the cytotoxicity was assessed in NIH 3T3 fibroblasts cells.
(§2) Asynchronous cultures were exposed to different concentrations of inhibitor for 72 hrs. […] The cytotoxicity against NIH 3T3 fibroblasts was evaluated using an MTS assay [(3-(4,5-dimethylthiazol-2-yl)-5-(3-carboxymethoxyphenyl)-2-(4-sulfophenyl)-2H-tetrazolium), CellTiter 96® Aqueous non-radioactive cell proliferation assay, Promega

A further data set has as its system NIH 3T3 fibroblasts. In words: Cytotoxicity against NIH 3T3 fibroblasts (MTS assay). Format: cell-based. The following applies: Table 2, MTS assay. How it is done: as §1, §2
(Tetrazolium dyes change colour on reduction, which living cells bring about.)

For data set [2] the following is noted: reported in the past, Gutierrez et. al. Pharmaceutical Biol. 2005, 43, 762-765; cited from earlier work.
The nature of data set [3]: Cytotoxicity against NIH 3T3 fibroblasts (MTS assay). It counts as cell-based. The following applies: mouse, Table 1, NIH 3T3 fibroblasts cells. The method, then:
as §1, §2

The conditions of data set [4]: has been shown, no source given; cited from earlier work.
The mark [5] stands for this setting: Plasmodium falciparum, Table 2, chloroquine-resistant Dd2 strain, asynchronous cultures, 72 hrs, read-out: P. falciparum IC50.
The mark [6] stands for this setting: Plasmodium falciparum, Table 1, P falciparum chloroquine resistant Dd2, read-out: Dd2 IC50.
The mark [7] stands for this setting: Table 2, chloroquine-resistant Dd2 strain, asynchronous cultures, 72 hrs, read-out: P. falciparum IC50.

Read-outs that look alike come from different tables or passages of the source.

In the case of `NCC(c1c[nH]c2ccccc12)c1c[nH]c2ccccc12` [2,2 bisindol-3-ylethyl amine 9, 2,2 bisindol-3-ylethyl amine], the IC50 worked out at 6.5 µM in data set [1] (setting [5]) and 11.5 µM in the data set on NIH 3T3 fibroblasts (Mus musculus, NIH3T3).

With `COC1=C(Br)[C@H](O)[C@](O)(CC#N)C=C1Br` [Aeroplysin-1, aeroplysinin-1], in data set [2], the anti-malarial activity entry is given as “anti-malarial activity”.

Consider `C/C1=C/C(=O)C/C(C)=C/CC(C)(C)/C=C/C(=O)[C@@H](C)CCC1` [Compound 2], for which the IC50 in data set [1] (setting [6]) was found to be 1.56 µM; in data set [3] (NIH 3T3 fibroblast cells), 21.8 µM. In data set [1] (Table 1), this compound registered a Selectivity of 13.94.

`C/C1=C\CC(C)(C)/C=C/C(=O)[C@@H](C)CCC[C@H](C)CC(=O)C1` [Compound 3]: the IC50 was 2.5 µM in data set [1] (Plasmodium falciparum, Dd2 strain printed for compound 3 only, strain not printed for 4 and HB39.A10, read-out: IC50); 1.77 µM in data set [1] (setting [6]); 20 µM in data set [3] (NIH 3T3 fibroblast cells). The Selectivity in data set [1] (Table 1) was determined as 11.34.

Consider `COc1ccc(/C=C/CCCCC(C)[C@H](O)[C@@H](O)C2NC(=O)C[C@@H](O)CNC(=O)CNC(=O)[C@@H](Cc3c(C(=O)O)[nH]c4ccccc34)NC(=O)CN(C)C(=O)C[C@@]3(O)NC(=O)[C@H](O)C3NC(=O)[C@H]2O)cc1` (stereo partly shown) [Compound 4, microsclerodermin A], for which the IC50 is 0.73 µM in data set [1] (Plasmodium falciparum, DD2); 0.075 µM in data set [1] (Plasmodium falciparum, DD2, read-out: Dd2 IC50); 3.53 µM in data set [3]. Moreover, in data set [1] (Table 1), the Selectivity is 47.07.

In the case of `CCC(=O)NCCc1c2c3c(ccnc3c3ncsc13)-c1ccccc1N2` [Compound 5, dercitamide], in data set [4], the cytotoxicity entry was “very moderate cytotoxicity”. The IC50 in data set [1] (Dd2 strain printed for compound 3 only, strain not printed for 4 and HB39.A10, read-out: IC50) came to 2.3 µM; in data set [1] (setting [6]), 1.05 µM; in data set [3] (NIH 3T3 fibroblast cells), 14.8 µM. The Selectivity in data set [1] (Table 1) worked out at 14.13.

`CN1CC(c2c[nH]c3c(Br)c(Br)cc(O)c23)NCC1c1c[nH]c2cc(Br)ccc12` (stereo not shown) [Dragmacidin 6, Dragmacidin]: the IC50 amounted to 6.4 µM in data set [1] (setting [7]) and 7.8 µM with NIH 3T3 fibroblasts.

Consider `NC(N)=NCCSc1nc(-c2c[nH]c3cc(Br)ccc23)cnc1-c1c[nH]c2cc(Br)ccc12` [Dragmacidin G 12, Dragmacidin G], for which the IC50 stood at 6.4 µM in data set [1] (setting [7]) and 7.8 µM with NIH 3T3 fibroblasts.

Take `O=C1N[C@@H](c2c[nH]c3cc(Br)ccc23)CN=C1c1c[nH]c2cc(Br)ccc12` [Hamacanthin A 7, Hamacanthin A]: the IC50 in data set [1] (setting [7]) came out at 3.2 µM; with NIH 3T3 fibroblasts, 30.4 µM.

As to `O=C1NC[C@H](c2c[nH]c3cc(Br)ccc23)N=C1c1c[nH]c2cc(Br)ccc12` [Hamacanthin B 8, Hamacanthin B], the figures for the IC50 (in data set [1] (setting [7]); with NIH 3T3 fibroblasts) were greater than 20.6 µM and 38.6 µM, respectively.

As for `Brc1ccc2c(-c3cnc(-c4c[nH]c5cc(Br)ccc45)[nH]3)c[nH]c2c1` [Nortopsentin A, reference compound], the IC50 in data set [1] (setting [5]) is 0.6 µM; in the data set on NIH 3T3 fibroblasts (Mus musculus, NIH3T3), 6 µM.

As to Dragmacidin D [Dragmacidin D 11], the IC50 turned out to be 5.2 µM in data set [1] (setting [7]) and 27.7 µM with NIH 3T3 fibroblasts.

One may read the IC50 as the midpoint of a concentration-inhibition curve.
